According to US10835468B2, “Particular pyridinedicarboxylic acid derivative/antioxidant combination” (L'OREAL, priority 2014, dated 2020):
Several values for one entry are separate records, joined by “and”; a condition that tells them apart may be missing. Identical values can stand only once.

What was measured:
Assay type in all cases: cell-based
Settings in all cases: 72 hours under normoxia
BNIP3 = assay: Expression of hypoxia-sensitive gene BNIP3 in primary human keratinocytes in culture (RT-qPCR)
Procedure: (§1) The following protocol was followed: the tests were performed on human keratinocytes in culture, seeded on Greiner brand 48-well plates, coated with bovine collagen I. The plates were prepared according to the following procedure: the solution of bovine collagen I at 0.1 mg/ml was prepared by dilution in phosphate-buffered saline (PBS) of the bovine collagen I solution sold by the company Life Technologies. Each well was immersed with 1 ml of this dilution, which was left at the bottom of the wells for 1 hour at 37° C. At the end of the incubation, the collagen solution was removed and the wells were rinsed twice with 1 ml of PBS. The plates were then stored at 4° C. until the time of use. […] Following this culturing and treatment, the cell lawns were washed with phosphate-buffered saline (or PBS) and then lysed using a lysis buffer proposed in the kit from the supplier Qiagen. The RNAs were then extracted using the RNeasy isolation kit and the Qiacube robotic workstation, both sold by the company Qiagen, according to the manufacturer's instructions. The quantity and quality of RNAs were controlled using the LabChip® GX bioanalyser from Perkin-Elmer before performing reverse transcription (RT) using the Qiagen kit and according to the supplier's recommendations (QuantiTect reverse transcription kit). The cDNA obtained following the RT was then amplified by real-time quantitative PCR using a specific kit sold under the commercial brand LightCycler® 480 SYBR Green Master Mix by the company Roche (Cat. No. 14123920) and an LC480 thermocycler (Roche). The PCRs were performed in triplicate (n=3). The information relating to the primers used is presented below. […] EGNL3/[…] Quantitect Assay Primer; RPL13A/QT00089915/Hs_RPL13A-1-SG Quantitect Assay Primer, and the fluorescent probe of brand name SYBR Green sold by the company specified previously. The PCR was performed in three phases: • denaturing phase for 10 minutes at 95° C., • amplification phase which consists of 45 cycles comprising: • a step of denaturing for 30 seconds at 95° C., • a step of hybridization for 30 seconds at 60° C., and • a step of elongation at 72° C. for 30 seconds, • melting phase for ensuring the quality of the hybridizations. The incorporation of SYBR Green into the amplified DNA was measured continuously during the amplification cycles. These measurements make it possible to obtain curves of fluorescence intensity as a function of the PCR cycles and thus to evaluate the relative expression of each marker from the cycle thresholds (Ct), corresponding to the number of cycles required to appropriately detect a fluorescence level. For each marker and for each condition, the relative expression (RE) value was normalized relative to the expression of the reference gene RPL13. The expression of each gene is normalized by that of the “stable referent gene” (or “housekeeping gene” RPL13A, ribosomal gene). The results (“fold change” (Fc)) are expressed relative to the control. The genes used are hypoxia-sensitive (HIF-1 alpha signalling pathway) and are collated in Table 1 below. Three hypoxia-sensitive genes (BNIP3, EGLN3 and CA9) were used in the following examples. Three tests were performed according to the protocol described above for each gene and for each compound or combination.

EGLN3 = assay: Expression of hypoxia-sensitive gene EGLN3 in primary human keratinocytes in culture (RT-qPCR)
Procedure: as §1

CA9 = assay: Expression of hypoxia-sensitive gene CA9 in primary human keratinocytes in culture (RT-qPCR)
Procedure: as §1

Row | Structure (SMILES) | BNIP3 expression, fold change relative to the control, mean ± standard deviation (BNIP3; compound 100 μM) | BNIP3 expression, fold change relative to the control, single tests (BNIP3; compound 100 μM) | BNIP3 expression, fold change relative to the control, mean ± standard deviation (BNIP3; compound 300 μM) | BNIP3 expression, fold change relative to the control, single tests (BNIP3; compound 300 μM) | EGLN3 expression, fold change relative to the control, mean ± standard deviation (EGLN3; compound 100 μM) | EGLN3 expression, fold change relative to the control, single tests (EGLN3; compound 100 μM) | EGLN3 expression, fold change relative to the control, mean ± standard deviation (EGLN3; compound 300 μM) | EGLN3 expression, fold change relative to the control, single tests (EGLN3; compound 300 μM) | CA9 expression, fold change relative to the control, mean ± standard deviation (CA9; compound 100 μM) | CA9 expression, fold change relative to the control, mean ± standard deviation (CA9; compound 300 μM) | CA9 expression, fold change relative to the control, single tests (CA9; compound 300 μM) | BNIP3 expression, fold change relative to the control, mean ± standard deviation (BNIP3; compound 10 μM) | BNIP3 expression, fold change relative to the control, single tests (BNIP3; compound 10 μM) | EGLN3 expression, fold change relative to the control, mean ± standard deviation (EGLN3; compound 10 μM) | CA9 expression, fold change relative to the control, mean ± standard deviation (CA9; compound 10 μM) | BNIP3 expression, fold change relative to the control, mean ± standard deviation (BNIP3; compound 30 μM) | BNIP3 expression, fold change relative to the control, single tests (BNIP3; compound 30 μM) | EGLN3 expression, fold change relative to the control, mean ± standard deviation (EGLN3; compound 30 μM) | CA9 expression, fold change relative to the control, mean ± standard deviation (CA9; compound 30 μM) | also measured
1 | CC1=NCC[C@@H](C(=O)O)N1 [Ectoin, ectoin] | (1.62 ± 0.27) | 1.31 and 1.77 | (1.62 ± 0.2) | 1.40 and 1.79 and 1.66 | (2.90 ± 0.50) | 2.48 and 2.76 and 3.46 | (2.62 ± 0.48) | 2.07 and 2.82 and 2.97 | (3.01 ± 0.64) | (2.57 ± 0.35) | 2.23 and 2.54 and 2.93 |  |  |  |  |  |  |  |  | CA9 expression, fold change relative to the control, single tests (CA9; compound 100 μM): 2.73 and 2.55 and 3.74
2 | O=C1O[C@H]([C@@H](O)CO)C(O)=C1O [Vitamin C, reference compound] | (1.12 ± 0.18) | 0.98 and 1.32 and 1.07 |  |  | (1.24 ± 0.24) | 1.05 and 1.51 and 1.16 |  |  | (1.22 ± 0.42) |  |  | (1.01 ± 0.12) | 1.02 and 1.13 and 0.89 | (1.07 ± 0.29) | (1.02 ± 0.52) |  |  |  |  | EGLN3 expression, fold change relative to the control, single tests (EGLN3; compound 10 μM): 0.92 and 1.41 and 0.89
3 | O=C(O)[C@H]1O[C@@H](Oc2cc3oc(-c4ccccc4)cc(=O)c3c(O)c2O)[C@H](O)[C@@H](O)[C@@H]1O [Baicalin, baicalin] |  |  |  |  |  |  |  |  |  |  |  |  |  |  |  | (1.23 ± 0.15) | 1.14 and 1.41 and 1.15 | (2.07 ± 0.39) | (0.91 ± 0.27) | BNIP3 expression, fold change relative to the control, mean ± standard deviation (BNIP3; compound 3 μM): (1.11 ± 0.15); BNIP3 expression, fold change relative to the control, single tests (BNIP3; compound 3 μM): 0.99 and 1.27 and 1.06; EGLN3 expression, fold change relative to the control, mean ± standard deviation (EGLN3; compound 3 μM): (1.19 ± 0.17); EGLN3 expression, fold change relative to the control, single tests (EGLN3; compound 3 μM): 1.00 and 1.33 and 1.25; EGLN3 expression, fold change relative to the control, single tests (EGLN3; compound 30 μM): 1.70 and 2.47 and 2.03; CA9 expression, fold change relative to the control, mean ± standard deviation (CA9; compound 3 μM): (1.06 ± 0.28); CA9 expression, fold change relative to the control, single tests (CA9; compound 3 μM): 1.27 and 1.18 and 0.74; CA9 expression, fold change relative to the control, single tests (CA9; compound 30 μM): 1.06 and 1.07 and 0.6
4 | CCOC(=O)c1ccnc(C(=O)OCC)c1 [Stemoxydine, diethyl 2,4-pyridinedicarboxylate] |  |  | (1.76 ± 0.32) | 1.51 and 1.65 and 2.13 |  |  | (2.60 ± 0.83) | 2.15 and 2.09 and 3.56 |  | (4.53 ± 1.15) | 3.87 and 3.86 and 5.86 |  |  |  |  |  |  |  |  | 
5 | Oc1ccc(C=Cc2cc(O)cc(O)c2)cc1 [Resveratrol, resveratrol] |  |  |  |  |  |  |  |  |  |  |  |  |  |  |  |  |  |  |  | BNIP3 expression, fold change relative to the control, mean ± standard deviation (BNIP3; compound 0.3 μM): (1.26 ± 0.24); BNIP3 expression, fold change relative to the control, single tests (BNIP3; compound 0.3 μM): 1.05 and 1.53 and 1.21; BNIP3 expression, fold change relative to the control, mean ± standard deviation (BNIP3; compound 1 μM): (2.01 ± 0.79); EGLN3 expression, fold change relative to the control, mean ± standard deviation (EGLN3; compound 0.3 μM): (1.92 ± 0.55); EGLN3 expression, fold change relative to the control, single tests (EGLN3; compound 0.3 μM): 1.31 and 2.36 and 2.10; EGLN3 expression, fold change relative to the control, mean ± standard deviation (EGLN3; compound 1 μM): (3.65 ± 1.76); CA9 expression, fold change relative to the control, mean ± standard deviation (CA9; compound 0.3 μM): (1.63 ± 0.28); CA9 expression, fold change relative to the control, single tests (CA9; compound 0.3 μM): 1.82 and 1.75 and 1.31; CA9 expression, fold change relative to the control, mean ± standard deviation (CA9; compound 1 μM): (2.02 ± 0.33); CA9 expression, fold change relative to the control, single tests (CA9; compound 1 μM): 2.34 and 1.97 and 1.75
6 | CCCCCCCCCCCCCCCC(=O)OC[C@H](O)[C@H]1OC(=O)C(O)=C1O [Ascorbyl palmitate, ascorbyl palmitate] |  |  |  |  |  |  |  |  |  |  |  | (1.10 ± 0.22) | 1.01 and 1.35 and 0.95 | (1.35 ± 0.46) | (1.63 ± 0.38) | (1.15 ± 0.41) | 1.04 and 1.6 and 0.81 | (1.16 ± 0.81) | (0.99 ± 0.80) | CA9 expression, fold change relative to the control, single tests (CA9; compound 10 μM): 1.65 and 2.00 and 1.25
